Experimental findings from ChEMBL document CHEMBL4257535, “Design, synthesis and biological evaluation of AKT inhibitors bearing a piperidin-4-yl appendant” (Medchemcomm, 2018) are described below.

Data set [1] relates to PC-3. As to the kind of experiment: Induction of apoptosis in human PC3 cells assessed as late apoptotic cells at 1 uM after 48 hrs by Annexin V-FITC/propidium iodide staining based flow cytometry (reference value: 0.27%). In kind it is functional. In general terms: In flow cytometry, cells or beads pass a laser one at a time.
In data set [2] the target is Serine/threonine-protein kinase B-raf (Homo sapiens) (UniProt P15056). As to the kind of experiment: Inhibition of BRAF (unknown origin) at 1 uM after 40 mins by scintillation counting method relative to control.
Data set [3] concerns the target T1, RAC-alpha serine/threonine-protein kinase (Homo sapiens, UniProt P31749). As to the kind of experiment: Inhibition of AKT1 (unknown origin) at 10 nM after 40 mins by scintillation counting method relative to control.
A short description of data set [4]: in vitro. Further details: dose or concentration left out as unconfirmed. The note with it: human, liver microsomes. In general terms: Liver microsomes are vesicles of endoplasmic reticulum, rich in cytochrome P450 enzymes.
Description: Stability in human liver microsomes assessed as parent compound remaining at 10 mM preincubated for 10 mins followed by NADPH addition and measured after 60 mins by LC-MS analysis
The subject of data set [5] is PC-3. As to the kind of experiment: Induction of apoptosis in human PC3 cells assessed as necrotic cells at 5 uM after 48 hrs by Annexin V-FITC/propidium iodide staining based flow cytometry (reference value: 1.48%). It is filed as functional.
For data set [6], the species on record is Homo sapiens. As to the kind of experiment: Selectivity ratio of compound effect for inhibition of AKT3 (unknown origin) to compound effect for inhibition of AKT2 (unknown origin).
In data set [7] the target is RAC-gamma serine/threonine-protein kinase (Homo sapiens) (UniProt Q9Y243). Put plainly: Inhibition of AKT3 (unknown origin) at 10 nM after 40 mins by scintillation counting method relative to control.
The target in data set [8] is Ribosomal protein S6 kinase alpha-1 (Homo sapiens) (UniProt Q15418). As to the kind of experiment: Inhibition of RSK1 (unknown origin) at 1 uM after 40 mins by scintillation counting method relative to control.
For data set [9], the target named is T2, 3-phosphoinositide-dependent protein kinase 1 (Homo sapiens) (UniProt O15530).
T2 sequence (whole entry): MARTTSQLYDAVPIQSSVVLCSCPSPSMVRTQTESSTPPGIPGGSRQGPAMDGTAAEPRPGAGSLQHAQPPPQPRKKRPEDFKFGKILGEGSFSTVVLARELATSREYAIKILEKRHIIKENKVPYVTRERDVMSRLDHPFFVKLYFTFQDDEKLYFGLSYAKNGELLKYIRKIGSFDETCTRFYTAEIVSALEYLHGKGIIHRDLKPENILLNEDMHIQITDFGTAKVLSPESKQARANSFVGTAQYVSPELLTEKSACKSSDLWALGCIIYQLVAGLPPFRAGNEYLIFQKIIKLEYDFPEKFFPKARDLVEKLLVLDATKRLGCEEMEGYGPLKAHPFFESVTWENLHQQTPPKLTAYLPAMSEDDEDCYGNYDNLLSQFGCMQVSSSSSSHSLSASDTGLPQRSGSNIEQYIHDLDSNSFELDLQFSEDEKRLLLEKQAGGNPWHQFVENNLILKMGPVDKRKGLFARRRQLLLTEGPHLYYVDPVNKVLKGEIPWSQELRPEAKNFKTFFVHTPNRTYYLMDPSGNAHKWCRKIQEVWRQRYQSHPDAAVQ
Put plainly: Inhibition of PDK1 (unknown origin) at 1 uM after 40 mins by scintillation counting method relative to control.

The subject of data set [10] is PC-3. As to the kind of experiment: Induction of apoptosis in human PC3 cells assessed as necrotic cells at 1 uM after 48 hrs by Annexin V-FITC/propidium iodide staining based flow cytometry (reference value: 1.48%). It is filed as functional.
Data set [11] concerns PC-3. As to the kind of experiment: Induction of apoptosis in human PC3 cells assessed as live cells at 1 uM after 48 hrs by Annexin V-FITC/propidium iodide staining based flow cytometry (reference value: 97.19%). In kind it is functional.
Data set [12] deals with PC-3. Put plainly: Induction of apoptosis in human PC3 cells assessed as necrotic cells at 10 uM after 48 hrs by Annexin V-FITC/propidium iodide staining based flow cytometry (reference value: 1.48%). In kind it is functional.
The species entered for data set [13] is Homo sapiens. As to the kind of experiment: Selectivity ratio of compound effect for inhibition of AKT1 (unknown origin) to compound effect for inhibition of AKT2 (unknown origin).
Data set [14] addresses T1, RAC-alpha serine/threonine-protein kinase. As to the kind of experiment: Inhibition of AKT1 (unknown origin) using biotin-labelled STK as substrate measured after 45 mins by HTRF method. (In general: TR-FRET usually uses a lanthanide donor and a delayed reading to cut background.)
The target of data set [15] is RAF proto-oncogene serine/threonine-protein kinase (Homo sapiens) (UniProt P04049). As to the kind of experiment: Inhibition of RAF1 (unknown origin) at 1 uM after 40 mins by scintillation counting method relative to control.

Active and inactive are the calls of the source. No cut-off for these calls is given here.

T1 sequence (P31749 whole entry): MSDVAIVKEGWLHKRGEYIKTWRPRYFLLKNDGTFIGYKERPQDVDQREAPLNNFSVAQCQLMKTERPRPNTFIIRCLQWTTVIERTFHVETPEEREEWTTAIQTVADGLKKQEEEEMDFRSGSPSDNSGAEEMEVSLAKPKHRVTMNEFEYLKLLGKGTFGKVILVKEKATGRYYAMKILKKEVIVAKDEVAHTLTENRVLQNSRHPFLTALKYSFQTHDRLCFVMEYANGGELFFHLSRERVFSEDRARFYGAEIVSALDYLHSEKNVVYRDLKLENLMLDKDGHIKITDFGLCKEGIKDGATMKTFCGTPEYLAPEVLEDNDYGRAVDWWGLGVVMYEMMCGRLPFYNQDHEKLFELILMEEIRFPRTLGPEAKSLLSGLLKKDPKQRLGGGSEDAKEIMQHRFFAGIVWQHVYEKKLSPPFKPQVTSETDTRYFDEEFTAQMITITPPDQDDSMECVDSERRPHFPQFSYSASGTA
Sequence of Serine/threonine-protein kinase B-raf (Homo sapiens) (P15056 whole entry): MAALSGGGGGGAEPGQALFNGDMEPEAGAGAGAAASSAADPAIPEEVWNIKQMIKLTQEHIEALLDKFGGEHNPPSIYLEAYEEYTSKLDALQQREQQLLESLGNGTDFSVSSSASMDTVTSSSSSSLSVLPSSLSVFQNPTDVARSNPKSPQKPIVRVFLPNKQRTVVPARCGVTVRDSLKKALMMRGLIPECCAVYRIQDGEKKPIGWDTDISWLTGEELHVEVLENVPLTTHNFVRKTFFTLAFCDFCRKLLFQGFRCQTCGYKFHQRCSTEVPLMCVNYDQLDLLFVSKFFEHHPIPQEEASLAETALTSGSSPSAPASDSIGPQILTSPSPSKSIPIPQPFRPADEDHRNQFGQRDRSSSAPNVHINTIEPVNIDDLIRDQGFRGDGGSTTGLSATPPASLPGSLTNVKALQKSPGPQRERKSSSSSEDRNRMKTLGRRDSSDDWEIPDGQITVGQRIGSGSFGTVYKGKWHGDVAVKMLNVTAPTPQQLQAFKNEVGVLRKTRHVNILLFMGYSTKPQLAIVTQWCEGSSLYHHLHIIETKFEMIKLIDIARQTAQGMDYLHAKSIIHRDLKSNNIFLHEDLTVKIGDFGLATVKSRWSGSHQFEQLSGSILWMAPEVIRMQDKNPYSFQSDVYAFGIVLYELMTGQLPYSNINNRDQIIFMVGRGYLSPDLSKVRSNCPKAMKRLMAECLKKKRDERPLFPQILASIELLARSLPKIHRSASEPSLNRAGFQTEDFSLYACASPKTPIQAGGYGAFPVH
Sequence of RAF proto-oncogene serine/threonine-protein kinase (Homo sapiens) (P04049 whole entry): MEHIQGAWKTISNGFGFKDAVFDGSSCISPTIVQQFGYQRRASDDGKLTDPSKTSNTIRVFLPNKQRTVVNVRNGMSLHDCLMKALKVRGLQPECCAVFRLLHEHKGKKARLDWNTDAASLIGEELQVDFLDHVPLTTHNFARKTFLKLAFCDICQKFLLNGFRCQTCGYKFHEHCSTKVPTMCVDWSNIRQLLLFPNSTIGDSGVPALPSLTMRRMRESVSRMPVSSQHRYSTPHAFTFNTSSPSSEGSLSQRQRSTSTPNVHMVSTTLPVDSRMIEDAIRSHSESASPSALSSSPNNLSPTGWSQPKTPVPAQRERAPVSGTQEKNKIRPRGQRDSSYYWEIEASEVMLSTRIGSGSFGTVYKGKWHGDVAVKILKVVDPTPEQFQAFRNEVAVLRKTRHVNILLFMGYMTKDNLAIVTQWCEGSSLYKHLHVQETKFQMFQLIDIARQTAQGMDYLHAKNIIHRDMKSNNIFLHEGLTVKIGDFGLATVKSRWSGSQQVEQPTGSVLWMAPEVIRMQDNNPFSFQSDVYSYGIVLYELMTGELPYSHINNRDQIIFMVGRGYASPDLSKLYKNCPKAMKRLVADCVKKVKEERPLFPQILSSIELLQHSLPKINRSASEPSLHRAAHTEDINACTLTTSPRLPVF
Sequence of Ribosomal protein S6 kinase alpha-1 (Homo sapiens) (Q15418 whole entry): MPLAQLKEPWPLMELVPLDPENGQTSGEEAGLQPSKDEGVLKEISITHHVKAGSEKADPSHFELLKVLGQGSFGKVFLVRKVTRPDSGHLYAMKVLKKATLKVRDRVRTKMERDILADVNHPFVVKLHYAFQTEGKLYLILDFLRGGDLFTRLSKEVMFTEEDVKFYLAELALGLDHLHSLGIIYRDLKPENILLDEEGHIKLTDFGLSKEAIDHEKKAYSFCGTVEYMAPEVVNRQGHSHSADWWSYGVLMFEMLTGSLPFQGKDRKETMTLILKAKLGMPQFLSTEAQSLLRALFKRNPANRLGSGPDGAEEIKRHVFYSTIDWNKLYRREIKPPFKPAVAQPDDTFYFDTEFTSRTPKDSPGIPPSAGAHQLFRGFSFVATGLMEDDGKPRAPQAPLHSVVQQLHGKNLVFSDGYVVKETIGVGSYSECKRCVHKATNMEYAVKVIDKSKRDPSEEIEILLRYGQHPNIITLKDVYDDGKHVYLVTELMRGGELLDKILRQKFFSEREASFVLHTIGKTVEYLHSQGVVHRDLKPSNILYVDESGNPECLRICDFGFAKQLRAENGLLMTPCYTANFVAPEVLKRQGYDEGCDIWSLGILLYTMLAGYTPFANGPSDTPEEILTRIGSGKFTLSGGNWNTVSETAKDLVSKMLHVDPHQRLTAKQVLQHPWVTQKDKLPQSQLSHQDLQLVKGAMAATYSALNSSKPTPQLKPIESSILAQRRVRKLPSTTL
Sequence of RAC-gamma serine/threonine-protein kinase (Homo sapiens) (Q9Y243 whole entry): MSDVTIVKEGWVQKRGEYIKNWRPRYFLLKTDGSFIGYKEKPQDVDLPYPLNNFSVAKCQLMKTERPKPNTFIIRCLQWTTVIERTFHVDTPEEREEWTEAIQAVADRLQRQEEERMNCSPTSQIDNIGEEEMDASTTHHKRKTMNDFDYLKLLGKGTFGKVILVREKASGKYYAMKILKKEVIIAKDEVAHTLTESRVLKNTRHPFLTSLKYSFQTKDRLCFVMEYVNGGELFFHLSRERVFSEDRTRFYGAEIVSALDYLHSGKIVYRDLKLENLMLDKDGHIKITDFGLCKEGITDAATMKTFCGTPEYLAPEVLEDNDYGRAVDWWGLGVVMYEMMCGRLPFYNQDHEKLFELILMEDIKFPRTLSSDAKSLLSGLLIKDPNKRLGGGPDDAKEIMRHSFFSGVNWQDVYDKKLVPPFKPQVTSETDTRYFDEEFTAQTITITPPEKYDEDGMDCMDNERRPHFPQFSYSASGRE

Regarding `O=C(N1CCN(c2ncnc3[nH]nc(Cl)c23)CC1)C1(c2ccc(Cl)c(Cl)c2)CCNCC1`, the Activity in data set [1] came out at 4.82%; in data set [5], 1.76%; in [10], 2%; in data set [11] it was 90.48%; in data set [12], 3.24%. The inhibition entry in data set [2], in data set [9] and in [15] was “inactive” throughout. Also, the values for the inhibition in data set [3], in data set [7] and in data set [8] were 82%, 93% and 83%, respectively. The share remaining (commonly what is left of the initial amount, in per cent) at 1 h in [4] was found to be 81.8%. Moreover, the Selectivity ratio in data set [6] and in data set [13] was greater than 2 in each case. In addition, the half-inhibitory concentration (IC50) (commonly the concentration at which inhibition is half-maximal) in data set [14] turned out to be 0.0243 µM.
